The text below walks through data of patent US6420381B1, “Naphthyridine derivatives” (Sumitomo Pharmaceuticals Company, Limited, priority 1998, dated 2002).

Data set [1] has as its system ACAT. Nature of the data set: Assay of ACAT inhibitory activity in a specimen prepared from rabbit liver. It counts as biochemical, New Zealand white rabbit. The settings on record: enzyme specimen from liver of cholesterol-fed rabbit, [1-14C]oleoyl-CoA. Here is the method: 1. Assay of ACAT inhibitory activity in a specimen prepared from rabbit liver:
An enzyme specimen ACAT was prepared according to the method disclosed in the literature: J. Lipid. Research, 30, 681-690, 1989, from the liver of a New Zealand white rabbit, which had been fed with 1% cholesterol feed for one month. The ACAT activity was determined according to the method disclosed in the literature: J. Lipid Research, 24, 1127-1134, 1983, i.e., using radioactive [1-^14C]oleoyl-CoA and endogenous cholesterol contained in the liver microsome, and calculated from the radioactivity of the labeled cholesterol oleate.

Data set [2] has as its target T1, ACAT (Rattus norvegicus, UniProt O70536).
T1 construct: The rat peritoneal-derived macrophage was prepared; endogenous in cells; host or cells: rat peritoneal macrophages (primary)
T1 sequence (O70536 1-545): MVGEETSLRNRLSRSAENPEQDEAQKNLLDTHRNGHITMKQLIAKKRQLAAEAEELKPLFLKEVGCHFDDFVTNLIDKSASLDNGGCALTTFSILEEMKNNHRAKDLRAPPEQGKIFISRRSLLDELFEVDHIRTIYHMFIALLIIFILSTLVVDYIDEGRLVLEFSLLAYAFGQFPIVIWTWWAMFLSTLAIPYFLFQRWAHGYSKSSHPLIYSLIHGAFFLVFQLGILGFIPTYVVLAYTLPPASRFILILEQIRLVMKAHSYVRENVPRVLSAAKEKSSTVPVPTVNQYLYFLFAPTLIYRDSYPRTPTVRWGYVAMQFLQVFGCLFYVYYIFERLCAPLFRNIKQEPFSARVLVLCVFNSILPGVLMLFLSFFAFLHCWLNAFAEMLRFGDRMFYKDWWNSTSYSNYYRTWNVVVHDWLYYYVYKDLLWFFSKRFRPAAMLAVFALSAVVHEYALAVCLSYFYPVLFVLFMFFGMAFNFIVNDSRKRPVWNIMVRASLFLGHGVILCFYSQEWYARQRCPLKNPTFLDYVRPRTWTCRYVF
Nature of the data set: Assay of ACAT inhibitory activity in a macrophage derived from rat peritoneal. It counts as cell-based. The settings on record: [9,10-3H]oleic acid. The procedure: 2. Assay of ACAT inhibitory activity in a macrophage derived from rat peritoneal:
The rat peritoneal-derived macrophage was prepared according to the method disclosed in the literature: Biochimica et Biophysica Acta, 1126, 73-80, 1992. The ACAT activity was determined by a modified method of the method disclosed in the above literature: Biochimica et Biophysica Acta, 1126, 73-80, 1992, i.e., using radioactive [9,10-^3H]oleic acid and exogenous cholesterol contained in the liposome which was re-constituted according to the method disclosed in the literature: Biochimica et Biophysica Acta, 1213, 127-134, 1994, and calculated from the radioactivity of the labeled cholesterolyl oleate.

Counter-ions that a name gives are not always drawn.

What is called melting point is the temperature, or range, at which the solid turns liquid.

For the molecule `CCCCn1c(=O)c(NC(=O)Nc2cc(CN(C)C)ccc2C(C)(C)C)c(-c2cccc(OC)c2)c2cccnc21` (as salt: hydrochloride) [Example 30], the melting point fell in the range of 174 to 175 °C.

Consider `CCCCn1c(=O)c(NC(=O)Nc2cc(CNC)ccc2C(C)(C)C)c(-c2cccc(OC)c2)c2cccnc21` (as salt: hydrochloride) [Example 31], for which the melting point was 163 to 165 °C.

On to `CCCCn1c(=O)c(NC(=O)Nc2cc(CNCC)ccc2C(C)(C)C)c(-c2cccc(OC)c2)c2cccnc21` (as salt: hydrochloride) [Example 32], for which the melting point was 158 to 161 °C.

Regarding `CCCCn1c(=O)c(NC(=O)Nc2cc(CN3CCOCC3)ccc2C(C)(C)C)c(-c2cccc(OC)c2)c2cccnc21` [Example 1, N-[1-butyl-4-(3-methoxyphenyl)-1,2-dihydro-2-oxo-1,8-naphthyridin-3yl]-N′-[2-tert-butyl-5-(morpholinomethyl)phenyl]urea], the “ACAT inhibitory rate (%) 10^−6 M” value in data set [1] is 98%. In data set [2] (10^−6 M, read-out: ACAT inhibitory rate (%) 10^−6 M), the inhibition at 1 µM amounted to 97%.

On to “N-[1-butyl-4-(3-methoxyphenyl)-1,2-dihydro-2-oxo-1,8-naphthyridin-3-yl]-N′-[2-tert-butyl-5-(1-pyrazolylmethyl)phenyl]urea [Example 19]”, for which the “ACAT inhibitory rate (%) 10^−6 M” value turned out to be 99% in data set [1] and 73% in data set [2].
